# Test results taken from US7858619B2, “Substituted tetrahydroisochinolines as MMP inhibitors, related production method and use as medicine” (sanofi-aventis, priority 2005, dated 2010).
# Like-named read-outs stand apart in the source and are kept apart here.
# Assays:
# Gelatinase B (MMP-9) = molecular target: T1, Gelatinase B (MMP-9) (Homo sapiens, UniProt P14780); assay: Catalytic inhibition of gelatinase B (MMP-9) in human serum (serum-based assay); type: biochemical
# T1 construct: All the MMP-9 present in the samples (proMMP-9; active MMP-9 complexed or not complexed with the respective test substance) was isolated; from tissue; host or cells: freshly isolated human serum
# Protocol: Freshly isolated human serum was shock-frozen in the desired volume in liquid N2 and then stored at −80° C. For the catalytic inhibition of MMP-9 in human serum, the appropriate parts by volume of human serum were thawed at room temperature. 100 parts by volume of undiluted, freshly thawed human serum were mixed with 1 part by volume of test substance, thoroughly mixed and incubated at 37° C. for 1 h. The test substances were dissolved in 100% dimethyl sulfoxide, and a 10 mM stock solution was prepared. For dose-effect plots, the test substances were tested in final concentrations of from […] to 0.001 μM for their catalytic inhibition of MMP-9 in human serum. The final concentration of DMSO in the reaction solution was 1% in each case.
# Active MMP-9 from the reaction solutions described above was determined with the aid of a MMP-9 activity assay system (Amersham Pharmacia Biotech Europe GmbH).
# After the incubation, one part by volume of the reaction mixture described above was diluted with 20 parts by volume of MMP-9 reaction buffer. The samples diluted in this way were transferred to a 96-well assay plate (Amersham Pharmacia Biotech Europe GmbH, Germany) coated with a specific MMP-9 antibody and incubated at 4° C. overnight. In addition, various concentrations of dissolved, recombinant human pro MMP-9 were likewise transferred onto the 96-well assay plate to construct the standard curve.
# 100 μl of the respective samples were employed per well. All the MMP-9 present in the samples (proMMP-9; active MMP-9 complexed or not complexed with the respective test substance) was isolated from the sample mixture by the specific MMP-9 antibody and bound to a solid matrix.
# The immobilized MMP-9 samples were, after the incubation, washed 4× with 200 μl of washing buffer each time. Subsequently, proMMP-9 present was activated with 50 μl of APMA solution at 37° C. for 1.5 h.
# The enzymic activity was measured by adding, after the incubation, 50 μl of detection reagent to each sample and mixing. The absorption of the assay plate charged in this way was measured immediately at 405 nm in an ELISA measuring instrument in order to fix time t=0. The assay plate was then incubated at 37° C. for 2 to 3 h and thereafter the absorption at 405 nm was measured.
# Using the standard curve employed, the resulting measurements were converted as follows to the remaining, uninhibited active form of MMP-9 in ng/ml. • X=(Y−b)/m*20 • X=active MMP-9 in [ng/mL] • Y=measured absorption • b=intercept on y axis • m=gradient • 20=dilution factor
# The inhibitory effect was calculated as percentage inhibition by the following formula: % inhibition=100−(X2*100/X1) • X1=active MMP-9 in [ng/ml] without test substance • X2=active MMP-9 in [ng/ml] with test substance
# The IC50, the concentration of inhibitor which is necessary for 50% inhibition of the enzymic activity, was determined graphically by plotting the percentage inhibitions at various inhibitor concentrations.
# The composition of the buffer solutions respectively employed was as follows:
# Reaction buffer: • 50 mM Tris-HCl pH 7.6 • 1.5 mM NaCl • 0.5 mM CaCl2 • 1 μM ZnCl2 • 0.01% (v/v) BRIJ 35
# Recombinant MMP-9 employed for standard: • 0; 0.5; 1.0; 2.0; 4.0; 8.0; 16.0 ng/ml
# Washing buffer: • 0.01 M sodium phosphate buffer pH 7.0 • 0.05% Tween20
# APMA solution: • 1 mM p-aminophenyl mercuric acetate • 50 mM Tris-HCl pH 7.6 • 1.5 mM NaCl • 0.5 mM CaCl2 • 1 μM ZnCl2 • 0.01% (v/v) BRIJ 35
# Detection reagent: • Modified urokinase • S-2444 peptide substrate • 50 mM Tris-HCl pH 7.6 • 1.5 mM NaCl • 0.5 mM CaCl2 • 1 μM ZnCl2 • 0.01% (v/v) BRIJ 35
# [1] = Thermodynamic solubility in PBS buffer pH 7.4, CLND (chemoluminescent nitrogen detector); type: physicochemical; conditions: aqueous buffer, thermodynamic from solid, PBS buffer pH 7.4, room temperature
# Protocol: The solution is then centrifuged at 14 000 rpm for 5 minutes. The solution is removed from the pellet and filtered through a syringe filter (0.45 μm pore size). The presence of a pellet is checked in order to ensure that a saturated solution was present. The filtered clear solution is analyzed by HPLC.
# The dissolved amount of substance is quantified using a generic chromatographic method:
# Either a calibration line derived from DMSO stock solutions (1-500 μM) of the appropriate substance is used to quantify the corresponding signal in the UV (254 nm) chromatogram of the solubility sample, or the quantification is undertaken via the peak area in the CLND trace. In the case of CLND quantification, caffeine is used as standard in a calibrating dilution.
# The limit of quantitation is determined together with the calibration series. The limit of quantitation is normally 1-5 μM with UV detection, 5-10 μM with CLND quantification (depending on the number of nitrogen atoms in the molecule or the extinction coefficient of the molecule). If the intensity of the signal from the dissolved molecule is below the limit of quantitation, the result is reported as less than the limit of quantitation.
# The clear solution after incubation for 16 hours is always measured as duplicates, once diluted 40-fold and once directly without dilution. The sample for which the signal is in the linear range of the calibration is used to determine the solubility.
# Protein binding (human) = type: in vitro ADME; conditions: plasma
# [2] = hydroxamic acid derivatives, read-out: MMP-9*
# [3] = carboxylic acid derivatives, read-out: MMP-9 activity
# T1 sequence (P14780 107-707 limits assumed): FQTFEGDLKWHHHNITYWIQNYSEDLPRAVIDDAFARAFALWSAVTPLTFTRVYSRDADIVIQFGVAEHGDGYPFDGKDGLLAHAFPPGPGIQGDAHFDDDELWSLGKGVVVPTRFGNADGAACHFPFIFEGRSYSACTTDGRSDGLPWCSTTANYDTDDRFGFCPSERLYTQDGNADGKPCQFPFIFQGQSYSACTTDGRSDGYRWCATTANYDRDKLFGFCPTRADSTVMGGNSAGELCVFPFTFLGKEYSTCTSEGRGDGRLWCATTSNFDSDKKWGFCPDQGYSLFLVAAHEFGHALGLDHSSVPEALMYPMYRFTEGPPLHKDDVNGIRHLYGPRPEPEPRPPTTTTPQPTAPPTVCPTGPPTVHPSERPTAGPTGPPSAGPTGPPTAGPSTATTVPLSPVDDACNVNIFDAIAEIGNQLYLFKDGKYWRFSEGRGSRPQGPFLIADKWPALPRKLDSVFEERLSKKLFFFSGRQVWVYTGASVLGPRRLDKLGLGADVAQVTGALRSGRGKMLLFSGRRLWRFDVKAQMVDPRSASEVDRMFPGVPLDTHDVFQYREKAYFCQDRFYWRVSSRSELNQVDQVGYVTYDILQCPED
Compound,IC50 (Gelatinase B (MMP-9); [2]) [nM],solubility at 16 h [1] [µM],fraction unbound (Protein binding (human)),IC50 (Gelatinase B (MMP-9); [3]) [nM]
O=C(NO)C1c2ccccc2CCN1S(=O)(=O)c1ccc(Oc2ccc(F)cc2)cc1 (stereo not shown) [Comparative compound],2500,< 1,0.002,–
O=C(O)C1c2ccccc2CCN1S(=O)(=O)c1ccc(Oc2ccc(F)cc2)cc1 (stereo not shown) [Comparative compound],–,–,–,> 100000
"O=C(O)C1c2ccc(OCCN3CCCCC3)cc2CCN1S(=O)(=O)c1ccc(Oc2ccc(F)cc2)cc1 (stereo not shown) [Exemplary compound 2, 2-[4-(4-Fluorophenoxy)benzenesulfonyl]-6-(2-piperidin-1-ylethoxy)-1,2,3,4-tetrahydroisoquinoline-1-carboxylic acid]",–,–,–,8700
"CN1CCN(CCCOc2ccc3c(c2)CCN(S(=O)(=O)c2ccc(Oc4ccc(F)cc4)cc2)C3C(=O)NO)CC1 (stereo not shown) [Exemplary compound 3, 2-[4-(4-Fluorophenoxy)benzenesulfonyl]-6-[3-(4-methylpiperazin-1-yl)propoxy]-1,2,3,4-tetrahydroisoquinoline-1-carboxylic acid hydroxamide]",200,23,0.01,–
"CCN(CC)CCOc1ccc2c(c1)CCN(S(=O)(=O)c1ccc(Oc3ccc(F)cc3)cc1)C2C(=O)NO (stereo not shown) [Exemplary compound 9, 6-(2-Diethylaminoethoxy)-2-[4-(4-fluorophenoxy)benzenesulfonyl]-1,2,3,4-tetrahydroisoquinoline-1-carboxylic acid hydroxyamide]",20,153,0.061,–
"COc1ccc(Oc2ccc(S(=O)(=O)N3CCc4cc(OCCN5CCCCC5)ccc4C3C(=O)NO)cc2)cc1 (stereo not shown) [Exemplary compound 13, 2-[4-(4-Methoxyphenoxy)benzenesulfonyl]-6-(2-piperidin-1-ylethoxy)-1,2,3,4-tetrahydroisoquinoline-1-carboxylic acid hydroxyamide]",600,16,0.011,–
"COc1ccc(Oc2ccc(S(=O)(=O)N3CCc4cc(OCCN5CCCCC5)ccc4C3C(=O)O)cc2)cc1 (stereo not shown) [Exemplary compound 14, 2-[4-(4-Methoxyphenoxy)benzenesulfonyl]-6-(2-piperidin-1-ylethoxy)-1,2,3,4-tetrahydroisoquinoline-1-carboxylic acid]",–,–,–,7500
"CCN(CC)CCOc1ccc2c(c1)CCN(S(=O)(=O)c1ccc(Oc3ccc(OC)cc3)cc1)C2C(=O)NO (stereo not shown) [Exemplary compound 15, 6-(2-Diethylaminoethoxy)-2-[4-(4-methoxyphenoxy)benzenesulfonyl]-1,2,3,4-tetrahydroisoquinoline-1-carboxylic acid hydroxyamide]",200,107,0.012,–
"CCN(CC)CCOc1ccc2c(c1)CCN(S(=O)(=O)c1ccc(Oc3ccc(OC)cc3)cc1)C2C(=O)O (stereo not shown) [Exemplary compound 16, 6-(2-Diethylaminoethoxy)-2-[4-(4-methoxyphenoxy)benzenesulfonyl]-1,2,3,4-tetrahydroisoquinoline-1-carboxylic acid]",–,–,–,6600
